According to US5852191A, “Rigidized monomethine cyanines” (Carnegie Mellon University, priority 1995, dated 1998):
Where two headings read alike, the source gives them in different places. Blank lines part the entries; values can stand above or below the compound they belong to.

Assays:
[1] = Dimer formation of dye by UV spectrum on thin glass slide; type: physicochemical
[2] = Literature spectral properties of prior art fluorescent dyes; type: physicochemical
[3] = cited from earlier work; for RI (relative intensity): 1.00 = intensity of the dye in methanol
[4] = cited from earlier work
[5] = Absorption/emission spectra and molar extinction coefficients of the compounds of Examples A and B in solvents (Table 3); type: physicochemical; settings: for Shape of emission spectrum relative to absorption spectrum: FIG. 3 and FIG. 4; for Stokes shift: solvents of Table 3
Excerpt: (§1) The observed absorption maxima, molar extinction coefficients, emission maxima and qualitative solubility data for the boron-rigidized complexes of Examples A and B are provided in Table 3.

[6] = Qualitative solubility of the compounds of Examples A and B (Table 3); type: physicochemical; settings: applies to either dye compound
Excerpt: as §1

[7] = Relative fluorescence intensities of the compounds of Examples A and B in a variety of solvents (Table 4); type: physicochemical
Excerpt: See M. T. Ramos et al., Heterocycles, Vol. 29, p. 165 (1989).

[8] = Resistance to photodegradation (500 watt mercury vapor lamp; optical density monitored); type: physicochemical; settings: for Red shift at the maximum wavelength / Resistance to photofading compared with the Coumarin dyes: dichloromethane; for Photofading rate compared with the corresponding Coumarin compound: methanol, 500 watt mercury vapor lamp
Excerpt: The resistance to photodegradation of the compounds of Examples A and B in methanol and dichloromethane was also investigated and was compared with photofading rates of certain Coumarin dyes. A degassed solution of each dye in a quartz cuvette was illuminated with a 500 watt mercury vapor lamp from a distance of 4 inches. The solution optical density at maximum wavelength was monitored as a function of time.

[9] = Relative fluorescence of boron-rigidized vs unrigidized dye in methanol (FIG. 2); type: physicochemical; settings: excited at 348 nm, vs bis-benzoxazolylmethene hydrochloride
Excerpt: The present inventors have determined that the rigidization of the basic monomethine cyanine structure increase the quantum efficiency of the dye molecules as much as 5 to 20 times. Thus, the boron-rigidized dyes of the present invention are unusually fluorescent compared with nonrigidized cyanine dye molecules. The present invention thus provides a method for increasing the fluorescence of dyes by rigidizing monomethine cyanine compounds with a boron bridge. Rigidization increase the planarity of the compound, and the fluorescence intensity.

[10] = Absorptive and emissive wavelength maxima and fluorescence of the compounds of Examples C to I; type: physicochemical; settings: for Maximum absorptive wavelength / Maximum emissive wavelength: measured in methanol; for Fluorescence (in words): qualitative, methanol where stated

Compound: 7-amino-4-methylcoumarin acetate
Fluorescence capacity (extinction coefficient x quantum yield) relative to the present inventions' compounds [2]: approximately one-quarter

Compound: O=C(Cc1ccc2c(c1)N1C(=Cc3oc4ccc(CC(=O)ON5C(=O)CCC5=O)cc4[n+]3[B-]1(F)F)O2)ON1C(=O)CCC1=O [Blue 1-OSu, disuccinimidyl benzoxazolylmethene borondifluoride complex]
Dimer by UV spectrum ([1]; DMF reaction mixture): presence of dimer

Compound: CC1=CC(C)=[N+]2C1=Cc1c(C)cc(C)n1[B-]2(F)F [Bodipy, 3,3',5,5'-tetramethyl-2,2'-pyrromethene-1,1'-boron-difluoride]
RI (relative intensity) ([3]; Acetonitrile): 0.87
Extinction coefficient ([3]; Acetonitrile): 86.7 cm⁻¹ mM⁻¹
Max. absorption wavelength ([3]; Acetonitrile): 501 nm
Max. emission wavelength ([3]; Acetonitrile): 508 nm
RI (relative intensity) ([3]; Dioxane): 0.63
Extinction coefficient ([3]; Dioxane): 80.0 cm⁻¹ mM⁻¹
Max. absorption wavelength ([3]; Dioxane): 505 nm
Max. emission wavelength ([3]; Dioxane): 512 nm
RI (relative intensity) ([3]; Methanol): 1.00
Extinction coefficient ([3]; Methanol): 85.3 cm⁻¹ mM⁻¹
Max. absorption wavelength ([3]; Methanol): 501 nm
Max. emission wavelength ([3]; Methanol): 509 nm
RI (relative intensity) ([3]; Water): 0.48
Max. absorption wavelength ([3]; Water): 500 nm
Max. emission wavelength ([3]; Water): 508 nm
Maximum absorptive wavelength ([4]; aqueous media): 500 nm
Maximum emissive wavelength ([4]; aqueous media): 508 nm
Emission maximum ([4]; solvent not stated): 508 nm

Compound: CC1=CC(C)=[N+]2C1=Cc1c(C)c(S(=O)(=O)O)c(C)n1[B-]2(F)F [Bodipy-sulfonate, 4-Sulfonato-3,3'5,5'-Tetramethyl-2,2'-Pyrromethene-1,1'-Borondifluoride Complex]
RI (relative intensity) ([3]; Acetonitrile): 0.69
Extinction coefficient ([3]; Acetonitrile): 58.9 cm⁻¹ mM⁻¹
Max. absorption wavelength ([3]; Acetonitrile): 504 nm
Max. emission wavelength ([3]; Acetonitrile): 514 nm
RI (relative intensity) ([3]; Dioxane): 0.64
Extinction coefficient ([3]; Dioxane): 52.7 cm⁻¹ mM⁻¹
Max. absorption wavelength ([3]; Dioxane): 506 nm
Max. emission wavelength ([3]; Dioxane): 518 nm
RI (relative intensity) ([3]; Methanol): 1.00
Extinction coefficient ([3]; Methanol): 57.7 cm⁻¹ mM⁻¹
Max. absorption wavelength ([3]; Methanol): 500 nm
Max. emission wavelength ([3]; Methanol): 515 nm
RI (relative intensity) ([3]; Water): 0.67
Extinction coefficient ([3]; Water): 39.7 cm⁻¹ mM⁻¹
Max. absorption wavelength ([3]; Water): 494 nm
Max. emission wavelength ([3]; Water): 509 nm

Compound: F[B-]1(F)N2C(=Cc3oc4ccccc4[n+]31)Oc1ccccc12 [Example B, Bis-benzoxazolylmethene Borondifluoride]
Logarithm of the Extinction coefficient ([5]; Acetonitrile): 4.72 M^-1 cm^-1
Max. absorption wavelength ([5]; Acetonitrile): 358 nm
Max. emission wavelength ([5]; Acetonitrile): 385 nm
Logarithm of the Extinction coefficient ([5]; Chloroform): 4.72 M^-1 cm^-1
Max. absorption wavelength ([5]; Chloroform): 360 nm
Max. emission wavelength ([5]; Chloroform): 386 nm
Max. absorption wavelength ([5]; Ethanol): 358 nm
Max. emission wavelength ([5]; Ethanol): 386 nm
Logarithm of the Extinction coefficient ([5]; Ethyl Acetate): 4.74 M^-1 cm^-1
Max. absorption wavelength ([5]; Ethyl Acetate): 358 nm
Max. emission wavelength ([5]; Ethyl Acetate): 383 nm
Shape of emission spectrum relative to absorption spectrum [5]: appears to be much broader
Max. absorption wavelength ([5]; Methanol): 358 nm
Max. emission wavelength ([5]; Methanol): 385 nm
Logarithm of the Extinction coefficient ([5]; Toluene): 4.74 M^-1 cm^-1
Max. absorption wavelength ([5]; Toluene): 360 nm
Max. emission wavelength ([5]; Toluene): 392 nm
Stokes shift [5]: 28 nm
Solubility data (qualitative) ([6]; Acetonitrile): sol.
Solubility data (qualitative) ([6]; Chloroform): sol.
Solubility data (qualitative) ([6]; Ethanol): sparingly
Solubility data (qualitative) ([6]; Ethyl Acetate): sol.
Solubility data (qualitative) ([6]; Methanol): sparingly
Solubility data (qualitative) ([6]; Toluene): sol.
Relative fluorescence intensity ([7]; Acetonitrile): 1.39
Relative fluorescence intensity ([7]; Chloroform): 1.27
Relative fluorescence intensity ([7]; Ethanol): 1.33
Relative fluorescence intensity ([7]; Ethyl Acetate): 1.20
Relative fluorescence intensity ([7]; Methanol): 1.35
Relative fluorescence intensity ([7]; Toluene): 1.42
Red shift at the maximum wavelength [8]: approximately 12 nm
Resistance to photofading compared with the Coumarin dyes [8]: more resistant to photofading than the Coumarin dyes
Photofading rate compared with the corresponding Coumarin compound [8]: faded at a similar rate
Quantum yield compared with the unrigidized dye [9]: several fold greater than the unrigidized dye

Compound: O=C(O)Cc1ccc2c(c1)N1C(=Cc3oc4ccc(CC(=O)O)cc4[n+]3[B-]1(F)F)O2 [Example C, Bis-carboxymethyl Benzoxazolylmethene Borondifluoride]
Maximum absorptive wavelength [10]: 362 nm
Maximum emissive wavelength [10]: 386 nm
Fluorescence (in words) [10]: highly fluorescent

Compound: F[B-]1(F)N2C(=Cc3sc4ccccc4[n+]31)Oc1ccccc12 [Example D]
Maximum absorptive wavelength [10]: 388 nm
Maximum emissive wavelength [10]: 414 nm
Fluorescence (in words) [10]: highly fluorescent

Compound: CC(=O)C1=C2Sc3ccccc3N2[B-](F)(F)[n+]2c1sc1ccccc12 [Example E]
Maximum absorptive wavelength [10]: 416 nm
Fluorescence (in words) [10]: less fluorescent than the base benzothiazole chromophore

More lines, main results first:

Dimer by UV spectrum ([1]; HMPA): absence of dimer
Compound: O=C(O)CC1=C2Sc3cc(S(=O)(=O)O)ccc3N2[B-](F)(F)[n+]2c1sc1cc(S(=O)(=O)O)ccc12

Logarithm of the Extinction coefficient ([5]; Acetonitrile): 4.97 M^-1 cm^-1
Max. absorption wavelength ([5]; Acetonitrile): 418 nm
Max. emission wavelength ([5]; Acetonitrile): 423 nm
Logarithm of the Extinction coefficient ([5]; Chloroform): 4.97 M^-1 cm^-1
Max. absorption wavelength ([5]; Chloroform): 420 nm
Max. emission wavelength ([5]; Chloroform): 425 nm
Max. absorption wavelength ([5]; Ethanol): 418 nm
Max. emission wavelength ([5]; Ethanol): 423 nm
Logarithm of the Extinction coefficient ([5]; Ethyl Acetate): 4.98 M^-1 cm^-1
Max. absorption wavelength ([5]; Ethyl Acetate): 418 nm
Max. emission wavelength ([5]; Ethyl Acetate): 423 nm
Shape of emission spectrum relative to absorption spectrum [5]: mirrors its absorption spectrum
Max. absorption wavelength ([5]; Methanol): 418 nm
Max. emission wavelength ([5]; Methanol): 422 nm
Logarithm of the Extinction coefficient ([5]; Toluene): 4.95 M^-1 cm^-1
Max. absorption wavelength ([5]; Toluene): 420 nm
Max. emission wavelength ([5]; Toluene): 427 nm
Stokes shift [5]: 5-7 nm
Solubility data (qualitative) ([6]; Acetonitrile): sol.
Solubility data (qualitative) ([6]; Chloroform): sol.
Solubility data (qualitative) ([6]; Ethanol): sparingly
Solubility data (qualitative) ([6]; Ethyl Acetate): sol.
Solubility data (qualitative) ([6]; Methanol): sparingly
Solubility data (qualitative) ([6]; Toluene): sol.
Relative fluorescence intensity ([7]; Acetonitrile): 0.89
Relative fluorescence intensity ([7]; Chloroform): 0.91
Relative fluorescence intensity ([7]; Ethyl Acetate): 0.97
Relative fluorescence intensity ([7]; Methanol): 0.89
Relative fluorescence intensity ([7]; Toluene): 0.81
Red shift at the maximum wavelength [8]: approximately 12 nm
Photofading rate compared with the corresponding Coumarin compound [8]: faded somewhat faster
Compound: F[B-]1(F)N2C(=Cc3sc4ccccc4[n+]31)Sc1ccccc12 [Example A, Bis-benzothiazolylmethene Borondifluoride]
Resistance to photofading compared with the Coumarin dyes [8]: more resistant to photofading than the Coumarin dyes

Maximum absorptive wavelength [10]: 430 nm
Maximum emissive wavelength [10]: 476 nm
Fluorescence (in words) [10]: high fluorescence
Compound: F[B-]1(F)N2C=CC=CC2=Cc2sc3ccccc3[n+]21 [Example F, Benzothiazolyl Pyridylmonomethine Borondifluoride]

Maximum absorptive wavelength [10]: 432 nm
Maximum emissive wavelength [10]: 460 nm
Fluorescence (in words) [10]: very fluorescent
Compound: N#CC1=C2C=CC=CN2[B-](F)(F)[n+]2ccccc21 [Example G]

Maximum absorptive wavelength [10]: 512 nm
Maximum emissive wavelength [10]: 518 nm
Fluorescence (in words) [10]: intense green fluorescence
Compound: F[B-]1(F)N2C(=Cc3ccc4ccccc4[n+]31)C=Cc1ccccc12 [Example H, Bis-Quinolinemethene Borondifluoride]

Maximum absorptive wavelength [10]: 480 nm
Maximum emissive wavelength [10]: 492 nm
Fluorescence (in words) [10]: green fluorescence
Compound: F[B-]1(F)N2C(=Cc3ccc4ccccc4[n+]31)Sc1ccccc12 [Example I, 2(2'-Benzothiazolylmethene)Quinoline Borondifluoride]
